Experimental findings from patent publication US9434711B2 (Janssen Pharmaceutica, NV, priority 2007, dated 2016) are described below.

The experiment addresses canine TRPM8 (Canis lupus familiaris, UniProt Q1A7N1). The experiment in a line: In Vitro Canine TRPM8 Functional Assay (Ca2+ fluorescence, icilin activation). The conditions noted are these: for IC50: HEK293 cells stably expressing canine TRPM8, icilin activation, eight-point dose-response, read-out: IC50; for inhibition at 0.2 µM: compound at 0.2 μM, canine TRPM8, icilin activation, read-out: % Inh @ 0.2. The experiment is classed as cell-based. A digest of the protocol: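 Canine TRPM8 stably expressed in HEK293; compound added 5 min before icilin challenge (~80% max response), with fluorescent Ca2+ signal tracked throughout.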

Chain of canine TRPM8 (Q1A7N1 1-1104): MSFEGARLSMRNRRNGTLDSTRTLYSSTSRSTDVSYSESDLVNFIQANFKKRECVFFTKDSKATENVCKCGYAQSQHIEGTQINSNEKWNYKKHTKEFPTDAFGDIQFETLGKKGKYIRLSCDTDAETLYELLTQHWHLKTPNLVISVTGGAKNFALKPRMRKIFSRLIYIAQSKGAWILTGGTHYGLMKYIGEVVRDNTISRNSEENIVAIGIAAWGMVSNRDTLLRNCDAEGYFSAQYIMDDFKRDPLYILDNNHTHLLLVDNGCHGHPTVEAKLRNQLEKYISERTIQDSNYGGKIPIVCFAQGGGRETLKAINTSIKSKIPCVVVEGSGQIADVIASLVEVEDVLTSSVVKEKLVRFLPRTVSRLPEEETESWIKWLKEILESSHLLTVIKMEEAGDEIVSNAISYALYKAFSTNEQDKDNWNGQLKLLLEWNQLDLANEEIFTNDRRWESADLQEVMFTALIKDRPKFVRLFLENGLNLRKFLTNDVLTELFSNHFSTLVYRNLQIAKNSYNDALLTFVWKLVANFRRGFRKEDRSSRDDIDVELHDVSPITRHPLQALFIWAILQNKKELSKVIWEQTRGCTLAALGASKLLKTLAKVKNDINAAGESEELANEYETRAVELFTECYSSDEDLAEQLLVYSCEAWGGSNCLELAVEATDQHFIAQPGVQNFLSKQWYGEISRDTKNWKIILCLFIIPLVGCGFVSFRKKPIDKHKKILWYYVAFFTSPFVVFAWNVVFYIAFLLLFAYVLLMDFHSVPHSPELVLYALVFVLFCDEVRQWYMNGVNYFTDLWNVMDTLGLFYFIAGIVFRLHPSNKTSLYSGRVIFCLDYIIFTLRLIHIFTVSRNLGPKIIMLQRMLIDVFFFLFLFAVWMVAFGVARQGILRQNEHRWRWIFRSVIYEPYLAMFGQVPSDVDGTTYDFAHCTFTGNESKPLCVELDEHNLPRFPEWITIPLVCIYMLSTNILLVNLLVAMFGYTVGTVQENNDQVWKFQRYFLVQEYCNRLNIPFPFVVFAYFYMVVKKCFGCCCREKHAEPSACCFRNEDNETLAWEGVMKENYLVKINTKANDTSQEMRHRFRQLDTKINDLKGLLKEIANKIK

Take `CS(=O)(=O)Nc1ccc(S(=O)(=O)N(Cc2ccc(F)c(C(F)(F)F)c2)c2sc3ccccc3c2Cl)cc1` [Compound 659, N-(3-Chloro-benzo[b]thiophen-2-yl)-N-(4-fluoro-3-trifluoromethyl-benzyl)-4-methanesulfonylamino-benzenesulfonamide]: the half-maximal inhibitory concentration (IC50) turned out to be 14.1 nM and the inhibition at 0.2 µM was determined as 100%.
In the case of `CS(=O)(=O)Nc1ccc(S(=O)(=O)N(Cc2ccc(F)c(C(F)(F)F)c2)c2sc3ccccc3c2Br)cc1` [Compound 660, N-(3-Bromo-benzo[b]thiophen-2-yl)-N-(4-fluoro-3-trifluoromethyl-benzyl)-4-methanesulfonylamino-benzenesulfonamide], the IC50 is 11.2 nM and the inhibition at 0.2 µM amounted to 100%.
For `CS(=O)(=O)Nc1ccc(S(=O)(=O)N(Cc2ccc(F)c(C(F)(F)F)c2)c2sc3ccccc3c2Br)cc1Br` [Compound 661, 3-Bromo-N-(3-bromo-benzo[b]thiophen-2-yl)-N-(4-fluoro-3-trifluoromethyl-benzyl)-4-methanesulfonylamino-benzenesulfonamide], the IC50 was 14.1 nM and the inhibition at 0.2 µM was 100%.
Take `Cc1c(N(CCCCC(F)(F)F)S(=O)(=O)C(F)(F)F)sc2ccccc12` [Compound 662, C,C,C-Trifluoro-N-(3-methyl-benzo[b]thiophen-2-yl)-N-(5,5,5-trifluoro-pentyl)-methanesulfonamide]: the inhibition at 0.2 µM stood at 50.1%.
`O=S(=O)(N(Cc1ccc(F)c(C(F)(F)F)c1)c1cc2ccccc2s1)C(F)(F)F` [Compound 663, N-Benzo[b]thiophen-2-yl-N-(4-fluoro-3-trifluoromethyl-benzyl)-C,C,C-trifluoro-methanesulfonamide]: the inhibition at 0.2 µM came out at 17.1%.
Turning to `Cc1c(N(Cc2ccc(F)c(C(F)(F)F)c2)S(=O)(=O)C(F)(F)F)sc2ccccc12` [Compound 664, C,C,C-Trifluoro-N-(4-fluoro-3-trifluoromethyl-benzyl)-N-(3-methyl-benzo[b]thiophen-2-yl)-methanesulfonamide], the inhibition at 0.2 µM was 53.1%.
As for `Cc1c(N(CCC2CC2)S(=O)(=O)C(F)(F)F)sc2ccccc12` [Compound 665, N-(2-Cyclopropyl-ethyl)-C,C,C-trifluoro-N-(3-methyl-benzo[b]thiophen-2-yl)-methanesulfonamide], the inhibition at 0.2 µM amounted to 27.9%.
With `Nc1ccc(S(=O)(=O)N(CCCCC(F)(F)F)c2sc3ccccc3c2Cl)cc1` [Compound 666, 4-Amino-N-(3-chloro-benzo[b]thiophen-2-yl)-N-(5,5,5-trifluoro-pentyl)-benzenesulfonamide], the IC50 was found to be 8.1 nM and the inhibition at 0.2 µM stood at 103%.
As for `Nc1ccc(S(=O)(=O)N(CCCCC(F)(F)F)c2sc3ccccc3c2Cl)cc1Cl` [Compound 667, 4-Amino-3-chloro-N-(3-chloro-benzo[b]thiophen-2-yl)-N-(5,5,5-trifluoro-pentyl)-benzenesulfonamide], the IC50 was found to be 30.1 nM and the inhibition at 0.2 µM was found to be 103%.
As for `Nc1ccc(S(=O)(=O)N(CCCCC(F)(F)F)c2sc3ccccc3c2Br)cc1` [Compound 668, 4-Amino-N-(3-bromo-benzo[b]thiophen-2-yl)-N-(5,5,5-trifluoro-pentyl)-benzenesulfonamide], the IC50 came to 5 nM and the inhibition at 0.2 µM worked out at 103%.
Consider `Cc1c(N(Cc2ccc(F)c(C(F)(F)F)c2)S(=O)(=O)CC(F)(F)F)sc2ccccc12` [Compound 669, N-(4-Fluoro-3-trifluoromethyl-benzyl)-N-(3-methyl-benzo[b]thiophen-2-yl)-2,2,2-trifluoro-ethanesulfonamide], for which the IC50 was 51.2 nM and the inhibition at 0.2 µM stood at 96.4%.
With `Cc1c(N(CCC2CC2)S(=O)(=O)CC(F)(F)F)sc2ccccc12` [Compound 670, N-(2-Cyclopropyl-ethyl)-N-(3-methyl-benzo[b]thiophen-2-yl)-2,2,2-trifluoro-ethanesulfonamide], the concentration for half-maximal inhibition (IC50) is 39 nM and the inhibition at 0.2 µM was determined as 99.1%.
With `Cc1c(N(CCC(F)(F)F)S(=O)(=O)CC(F)(F)F)sc2ccccc12` [Compound 671, N-(3-Methyl-benzo[b]thiophen-2-yl)-N-(3,3,3-trifluoro-propyl)-2,2,2-trifluoro-ethanesulfonamide], the IC50 came to 34.5 nM and the inhibition at 0.2 µM turned out to be 100%.
For the compound `Cc1c(N(CCCC(F)(F)F)S(=O)(=O)CC(F)(F)F)sc2ccccc12` [Compound 672, N-(3-Methyl-benzo[b]thiophen-2-yl)-N-(4,4,4-trifluoro-butyl)-2,2,2-trifluoro-ethanesulfonamide], the IC50 turned out to be 74.9 nM and the inhibition at 0.2 µM was determined as 75.3%.
As for `Cc1c(N(CCCCC(F)(F)F)S(=O)(=O)CC(F)(F)F)sc2ccccc12` [Compound 673, N-(3-Methyl-benzo[b]thiophen-2-yl)-N-(5,5,5-trifluoro-pentyl)-2,2,2-trifluoro-ethanesulfonamide], the inhibition at 0.2 µM is 94.4%.
As to `COC(=O)c1ccc(S(=O)(=O)N(Cc2ccc(F)c(C(F)(F)F)c2)c2sc3ccccc3c2C2CC2)cc1` [Compound 674, N-(3-Cyclopropyl-benzo[b]thiophen-2-yl)-N-(4-fluoro-3-trifluoromethyl-benzyl)-4-carbomethoxy-benzenesulfonamide], the IC50 came to 77.6 nM and the inhibition at 0.2 µM is 85.4%.
For the compound `O=C(O)c1ccc(S(=O)(=O)N(Cc2ccc(F)c(C(F)(F)F)c2)c2sc3ccccc3c2C2CC2)cc1` [Compound 675, N-(3-Cyclopropyl-benzo[b]thiophen-2-yl)-N-(4-fluoro-3-trifluoromethyl-benzyl)-4-carboxy-benzenesulfonamide], the IC50 is 2.4 nM and the inhibition at 0.2 µM came to 100%.
For `CS(=O)(=O)Nc1ccc(S(=O)(=O)N(CCC(F)(F)F)c2sc3ccccc3c2Cl)cc1` [Compound 676, N-(3-Chloro-benzo[b]thiophen-2-yl)-4-methanesulfonylamino-N-(3,3,3-trifluoro-propyl)-benzenesulfonamide], the IC50 is 25.9 nM and the inhibition at 0.2 µM stood at 102%.
As to `CS(=O)(=O)Nc1ccc(S(=O)(=O)N(CCC(F)(F)F)c2sc3ccccc3c2Br)cc1` [Compound 677, N-(3-Bromo-benzo[b]thiophen-2-yl)-N-(3,3,3-trifluoro-propyl)-4-methanesulfonylamino-benzenesulfonamide], the IC50 amounted to 24.6 nM and the inhibition at 0.2 µM was 101%.
For the compound `CS(=O)(=O)Nc1ccc(S(=O)(=O)N(CCCCC(F)(F)F)c2cc3ccccc3s2)cc1` [Compound 678, N-(Benzo[b]thiophen-2-yl)-4-methanesulfonylamino-N-(5,5,5-trifluoro-pentyl)-benzenesulfonamide], the inhibition at 0.2 µM was 61%.
`CS(=O)(=O)Nc1ccc(S(=O)(=O)N(CCCCC(F)(F)F)c2sc3ccccc3c2Cl)cc1` [Compound 679, N-(3-Chloro-benzo[b]thiophen-2-yl)-4-methanesulfonylamino-N-(5,5,5-trifluoro-pentyl)-benzenesulfonamide]: the IC50 is 57.9 nM and the inhibition at 0.2 µM was 100%.
Consider `CS(=O)(=O)Nc1ccc(S(=O)(=O)N(CCCCC(F)(F)F)c2sc3ccccc3c2Br)cc1` [Compound 680, N-(3-Bromo-benzo[b]thiophen-2-yl)-4-methanesulfonylamino-N-(5,5,5-trifluoro-pentyl)-benzenesulfonamide], for which the IC50 amounted to 56.1 nM and the inhibition at 0.2 µM came to 96.2%.
The like results for `CS(=O)(=O)Nc1c(Cl)cc(S(=O)(=O)N(CCC(F)(F)F)c2sc3ccccc3c2Cl)cc1Cl` [Compound 681, 3,5-Dichloro-N-(3-chloro-benzo[b]thiophen-2-yl)-4-methanesulfonylamino-N-(3,3,3-trifluoro-propyl)-benzenesulfonamide] were, in that order, 67.4 nM and 93.3%.
The like results for `CS(=O)(=O)Nc1c(Cl)cc(S(=O)(=O)N(CCCCC(F)(F)F)c2sc3ccccc3c2Cl)cc1Cl` [Compound 682, 3,5-Dichloro-N-(3-chloro-benzo[b]thiophen-2-yl)-4-methanesulfonylamino-N-(5,5,5-trifluoro-pentyl)-benzenesulfonamide] were, in that order, 31.7 nM and 101%.
With `CS(=O)(=O)Nc1ccc(S(=O)(=O)N(CCC(F)(F)F)c2sc3ccccc3c2Br)cc1Br` [Compound 683, 3-Bromo-N-(3-bromo-benzo[b]thiophen-2-yl)-4-methanesulfonylamino-N-(3,3,3-trifluoro-propyl)-benzenesulfonamide], the IC50 is 25.8 nM and the inhibition at 0.2 µM was 101%.
Consider `O=c1[nH]c(-c2ccc(S(=O)(=O)N(CCC(F)(F)F)c3cc4ccccc4s3)cc2)ns1` [Compound 684, N-(Benzo[b]thiophen-2-yl)-N-(3,3,3-trifluoro-propyl)-4-(5-oxo-4,5-dihydro-[1,2,4]thiadiazol-3-yl)-benzenesulfonamide], for which the 50% inhibitory concentration (IC50) was determined as 145 nM and the inhibition at 0.2 µM amounted to 73.1%.
Regarding `O=C(O)c1ccc(S(=O)(=O)N(CCCCC(F)(F)F)c2cc3ccccc3s2)c(F)c1` [Compound 685, N-(Benzo[b]thiophen-2-yl)-N-(5,5,5-trifluoro-pentyl)-2-fluoro-4-carboxy-benzenesulfonamide], the IC50 worked out at 11.9 nM and the inhibition at 0.2 µM was 102%.
For the compound `O=C(O)c1ccc(S(=O)(=O)N(Cc2ccc(F)c(C(F)(F)F)c2)c2cc3ccccc3s2)c(F)c1` [Compound 686, N-(Benzo[b]thiophen-2-yl)-N-(4-fluoro-3-trifluoromethyl-benzyl)-2-fluoro-4-carboxy-benzenesulfonamide], the concentration for half-maximal inhibition (IC50) stood at 4.7 nM and the inhibition at 0.2 µM was determined as 105%.
In the case of `O=c1[nH]c(-c2ccc(S(=O)(=O)N(CCCCC(F)(F)F)c3cc4ccccc4s3)cc2)ns1` [Compound 687, N-(Benzo[b]thiophen-2-yl)-N-(5,5,5-trifluoro-pentyl)-4-(5-oxo-4,5-dihydro-[1,2,4]thiadiazol-3-yl)-benzenesulfonamide], the half-maximal inhibitory concentration (IC50) worked out at 56.9 nM and the inhibition at 0.2 µM was 74.5%.

As a reminder, the IC50 is the midpoint of a concentration-inhibition curve.
